In this test the test system is BDF1 mice, B16 melanoma ip, median survival T/C. Briefly: NCI In Vivo Anticancer Drug Screen. Data for tumor model B16 Melanoma (intraperitoneal) in B6D2F1 (BDF1) mice. Conditions: endpoint: median survival time, higher = longer survival. As for the experimental part: The antitumor activity of compounds was measured in mice bearing transplantable tumors. Survival or tumor size were measured and the results are expressed as the measurement made in the treated group (T) divided by the measurement made in the vehicle treated control group (C). The tumor model used in this assay is B16 Melanoma (intraperitoneal) in B6D2F1 (BDF1) mice

The mark [1] stands for this setting: dose: 6.25 mg/kg/injection, schedule: Q01DX009 (ip), vehicle: Klucel (hydroxypropylcellulose) (HPC).
Setting [2] is: dose: 6.25 mg/kg/injection, schedule: Q01DX009 (ip), vehicle: saline.
Where [3] appears, read: dose: 12.5 mg/kg/injection, schedule: Q01DX009 (ip), vehicle: Klucel (hydroxypropylcellulose) (HPC).
Setting [4] is: dose: 12.5 mg/kg/injection, schedule: Q01DX009 (ip), vehicle: saline.
[5] abbreviates: dose: 25.0 mg/kg/injection, schedule: Q01DX009 (ip), vehicle: Klucel (hydroxypropylcellulose) (HPC).
Setting [6] is: dose: 25.0 mg/kg/injection, schedule: Q04DX003 (ip), vehicle: Klucel (hydroxypropylcellulose) (HPC).
Where [7] appears, read: dose: 1.5 mg/kg/injection, schedule: Q01DX009 (ip), vehicle: Klucel (hydroxypropylcellulose) (HPC).
[8] abbreviates: dose: 25.0 mg/kg/injection, schedule: Q01DX009 (ip), vehicle: saline with Tween-80.
The mark [9] stands for this setting: dose: 50.0 mg/kg/injection, schedule: Q01DX009 (ip), vehicle: saline with Tween-80.
Where [10] appears, read: dose: 100.0 mg/kg/injection, schedule: Q01DX009 (ip), vehicle: saline with Tween-80.
Where [11] appears, read: dose: 100.0 mg/kg/injection, schedule: Q01DX009 (ip), vehicle: Klucel (hydroxypropylcellulose) (HPC).
The mark [12] stands for this setting: dose: 200.0 mg/kg/injection, schedule: Q01DX009 (ip), vehicle: Klucel (hydroxypropylcellulose) (HPC).
The mark [13] stands for this setting: dose: 400.0 mg/kg/injection, schedule: Q01DX009 (ip), vehicle: Klucel (hydroxypropylcellulose) (HPC).
Where [14] appears, read: dose: 50.0 mg/kg/injection, schedule: Q04DX003 (ip), vehicle: Klucel (hydroxypropylcellulose) (HPC).
The mark [15] stands for this setting: dose: 100.0 mg/kg/injection, schedule: Q04DX003 (ip), vehicle: Klucel (hydroxypropylcellulose) (HPC).

Several values for one entry are separate records, joined by “and”; a condition that tells them apart may be missing. Equal values may be shown once. Toxic doses and inconclusive results are not listed.

Turning to `BrCCC[P+](c1ccccc1)(c1ccccc1)c1ccccc1`, the T/C reads like this: (dose: 3.13 mg/kg/injection, schedule: Q01DX009 (ip), vehicle: Klucel (hydroxypropylcellulose) (HPC)) 106 % of control; (dose: 3.13 mg/kg/injection, schedule: Q01DX009 (ip), vehicle: saline) 105 % of control; (dose: 3.13 mg/kg/injection, schedule: Q04DX003 (ip), vehicle: saline) 89 % of control; under setting [1], 103 % of control; under setting [2], 100 % of control; (dose: 6.25 mg/kg/injection, schedule: Q04DX003 (ip), vehicle: saline) 89 % of control. The T/C is 106 % of control under setting [3]; 107 % of control under setting [4]; 89 % of control (dose: 12.5 mg/kg/injection, schedule: Q04DX003 (ip), vehicle: saline); 90 % of control under setting [5]; 90 % of control under setting [6].

Consider `COC(=O)[C@@H]1[C@@H](O)[C@H](OC(=O)c2cc(OC)c(OC)c(OC)c2)C[C@@H]2CN3CCc4c([nH]c5ccccc45)[C@H]3C[C@@H]21`, for which the T/C by setting is: under setting [7], 107 % of control; (dose: 3.0 mg/kg/injection, schedule: Q01DX009 (ip), vehicle: Klucel (hydroxypropylcellulose) (HPC)) 98 % of control; (dose: 6.0 mg/kg/injection, schedule: Q01DX009 (ip), vehicle: Klucel (hydroxypropylcellulose) (HPC)) 97 % of control.

For the molecule `Cn1c(C[N+](C)(C)C)cc2ccccc21`, the T/C by setting is: under setting [8], 97 % of control; under setting [9], 94 % of control; under setting [10], 86 % of control.

As to `COc1ccc2c(c1)C/C(=N\O)C2=O`, the T/C by setting is: under setting [8], 99 % of control; under setting [9], 114 % of control; under setting [10], 92 % of control.

Regarding `c1cc[c]([Sn]([c]2ccccc2)([c]2ccccc2)[n]2cccc2)cc1`, the T/C under setting [2] is 115 % of control.

Take `CSc1ccc(N=Cc2ccc3c(c2)OCO3)cc1`: the T/C was 90 % of control under setting [11] and 88 % of control under setting [12].

For `CCOC(=O)/C=C(\C)Nc1ccc(F)cc1`, the T/C was 88 % of control under setting [11], 97 % of control under setting [12] and 91 % of control under setting [13].

Turning to `Cc1c2cc[n+](C)c(C)c2cc2c1[nH]c1ccccc12`, the T/C (dose: 10.0 mg/kg/injection, schedule: Q04DX003 (ip), vehicle: water) was 95 % of control; the T/C (dose: 20.0 mg/kg/injection, schedule: Q04DX003 (ip), vehicle: water) is 92 % of control; the T/C (dose: 40.0 mg/kg/injection, schedule: Q04DX003 (ip), vehicle: water) was 94 % of control.

With `ClCc1c2ccccc2c(CCl)c2ccccc12`, the T/C is 114 % of control (dose: 0.75 mg/kg/injection, schedule: Q01DX009 (ip), vehicle: Klucel (hydroxypropylcellulose) (HPC)) and 119 % of control under setting [7].

As to `C1CC[N-]CC1.[Cl][Pt+2][Cl].[NH-]C1CC1`, the T/C is 105 % of control (dose: 3.12 mg/kg/injection, schedule: Q01DX009 (ip), vehicle: water); 151 % of control (dose: 3.13 mg/kg/injection, schedule: Q01DX009 (ip), vehicle: water); 152 % of control (dose: 6.25 mg/kg/injection, schedule: Q01DX009 (ip), vehicle: water); 119 % of control (dose: 12.5 mg/kg/injection, schedule: Q01DX009 (ip), vehicle: water).

In the case of `O=C(N/N=C/c1ccc(N(CCCl)CCCl)cc1)c1ccc(C(=O)N/N=C/c2ccc(N(CCCl)CCCl)cc2)cc1`, the T/C runs as follows: under setting [6], 97 % of control; under setting [14], 90 % of control and 100 % of control; under setting [15], 97 % of control; (dose: 200.0 mg/kg/injection, schedule: Q04DX003 (ip), vehicle: Klucel (hydroxypropylcellulose) (HPC)) 90 % of control and 95 % of control.

On to `CN(C)c1ccc(-c2cc[n+](C)cc2)cc1`, for which the T/C runs as follows: (dose: 0.5 mg/kg/injection, schedule: Q01DX009 (ip), vehicle: saline) 109 % of control; (dose: 1.0 mg/kg/injection, schedule: Q01DX009 (ip), vehicle: saline) 103 % of control; (dose: 2.0 mg/kg/injection, schedule: Q01DX009 (ip), vehicle: saline) 101 % of control; (dose: 3.0 mg/kg/injection, schedule: Q01DX009 (ip), vehicle: saline) 104 % of control; (dose: 6.0 mg/kg/injection, schedule: Q01DX009 (ip), vehicle: saline) 92 % of control.

As to `C[n+]1ccc(Nc2ccc(NC(=O)c3ccc(Nc4cc[n+](C)c5ccc(N)cc45)cc3N)cc2)cc1`, the T/C (dose: 1.0 mg/kg/injection, schedule: Q01DX009 (ip), vehicle: saline with Tween-80) is 98 % of control; the T/C (dose: 1.0 mg/kg/injection, schedule: Q02DX009 (ip), vehicle: Klucel (hydroxypropylcellulose) (HPC)) is 103 % of control and 105 % of control; the T/C (dose: 2.0 mg/kg/injection, schedule: Q01DX009 (ip), vehicle: saline with Tween-80) is 105 % of control; the T/C (dose: 2.0 mg/kg/injection, schedule: Q02DX009 (ip), vehicle: Klucel (hydroxypropylcellulose) (HPC)) was 109 % of control and 113 % of control; the T/C (dose: 4.0 mg/kg/injection, schedule: Q01DX009 (ip), vehicle: saline with Tween-80) was 109 % of control; the T/C (dose: 4.0 mg/kg/injection, schedule: Q02DX009 (ip), vehicle: Klucel (hydroxypropylcellulose) (HPC)) was 101 % of control and 106 % of control. The T/C under setting [1] was 109 % of control; the T/C under setting [2] is 104 % of control; the T/C (dose: 8.0 mg/kg/injection, schedule: Q01DX009 (ip), vehicle: saline with Tween-80) was 106 % of control; the T/C (dose: 8.0 mg/kg/injection, schedule: Q02DX009 (ip), vehicle: Klucel (hydroxypropylcellulose) (HPC)) was 108 % of control and 110 % of control; the T/C under setting [3] was 105 % of control; the T/C under setting [4] was 102 % of control. The T/C (dose: 16.0 mg/kg/injection, schedule: Q01DX009 (ip), vehicle: saline with Tween-80) was 106 % of control; the T/C (dose: 16.0 mg/kg/injection, schedule: Q02DX009 (ip), vehicle: Klucel (hydroxypropylcellulose) (HPC)) is 109 % of control and 113 % of control; the T/C under setting [5] is 89 % of control; the T/C (dose: 32.0 mg/kg/injection, schedule: Q02DX009 (ip), vehicle: Klucel (hydroxypropylcellulose) (HPC)) is 92 % of control and 97 % of control.

Take `CCCCCCC/C=C/C(=O)OC1C(OC2C(OC(CCCCCCC)CC(=O)OC(CCCCCCC)CC(=O)O)OC(C)C(O)C2O)OC(C)C(O)C1O` (configuration not stated): the T/C was 90 % of control under setting [3]; 104 % of control under setting [5]; 92 % of control (dose: 50.0 mg/kg/injection, schedule: Q01DX009 (ip), vehicle: Klucel (hydroxypropylcellulose) (HPC)).

For `CC1(C)N=C(N)N=C(N)N1c1ccc(CCCCc2cccc(S(=O)(=O)F)c2)c(Cl)c1`, the T/C (dose: 8.0 mg/kg/injection, schedule: Q01DX009 (ip), vehicle: saline) is 108 % of control; the T/C (dose: 12.0 mg/kg/injection, schedule: Q01DX009 (ip), vehicle: saline) was 116 % of control; the T/C (dose: 18.0 mg/kg/injection, schedule: Q01DX009 (ip), vehicle: saline) was 118 % of control; the T/C (dose: 27.0 mg/kg/injection, schedule: Q01DX009 (ip), vehicle: saline) is 124 % of control.

As to `Cc1nc(NCc2ccccc2)c2cc[nH]c2n1`, the T/C (dose: 0.04 mg/kg/injection, schedule: Q01DX009 (ip), vehicle: saline) was 116 % of control; the T/C (dose: 0.09 mg/kg/injection, schedule: Q01DX009 (ip), vehicle: saline) is 123 % of control; the T/C (dose: 0.39 mg/kg/injection, schedule: Q01DX009 (ip), vehicle: saline) is 113 % of control.

Consider `O=C=Nc1ccc(Cc2ccc(N=C=O)cc2)cc1`, for which the T/C under setting [13] is 123 % of control.

On to `C=CCN(CC=C)c1ccc(N(CC)CC)cc1`, for which the T/C is 99 % of control under setting [6]; 102 % of control under setting [14]; 88 % of control and 89 % of control under setting [15].

As to `OC1CCC(O)C1(Cl)Cl` (configuration not stated), the T/C by setting is: (dose: 25.0 mg/kg/injection, schedule: Q01DX009 (ip), vehicle: saline) 98 % of control; (dose: 50.0 mg/kg/injection, schedule: Q01DX009 (ip), vehicle: saline) 109 % of control; (dose: 100.0 mg/kg/injection, schedule: Q01DX009 (ip), vehicle: saline) 91 % of control.
